Patent publication US20070105940A1, “Method for treating pain” (ALLERGAN, INC., priority 2005, published 2007)
Like-named read-outs stand apart in the source and are kept apart here.

What was measured:
[1] = tested on: fatty acid amide hydrolase (FAAH); assay: FAAH inhibition in vitro; type: biochemical
Source text: Similar results were obtained with other congeners, provided that at least one double bond was present in the acyl chain.

TRPV1 channels [2] = target: T1, TRPV1 channels (Homo sapiens, UniProt Q8NER1); assay: Blocking of TRPV1 channel activation by capsaicin; type: cell-based; details: capsaicin 100 nM; FIG. 1A; read-out: IC50 against capsaicin
T1 sequence (Q8NER1 whole entry): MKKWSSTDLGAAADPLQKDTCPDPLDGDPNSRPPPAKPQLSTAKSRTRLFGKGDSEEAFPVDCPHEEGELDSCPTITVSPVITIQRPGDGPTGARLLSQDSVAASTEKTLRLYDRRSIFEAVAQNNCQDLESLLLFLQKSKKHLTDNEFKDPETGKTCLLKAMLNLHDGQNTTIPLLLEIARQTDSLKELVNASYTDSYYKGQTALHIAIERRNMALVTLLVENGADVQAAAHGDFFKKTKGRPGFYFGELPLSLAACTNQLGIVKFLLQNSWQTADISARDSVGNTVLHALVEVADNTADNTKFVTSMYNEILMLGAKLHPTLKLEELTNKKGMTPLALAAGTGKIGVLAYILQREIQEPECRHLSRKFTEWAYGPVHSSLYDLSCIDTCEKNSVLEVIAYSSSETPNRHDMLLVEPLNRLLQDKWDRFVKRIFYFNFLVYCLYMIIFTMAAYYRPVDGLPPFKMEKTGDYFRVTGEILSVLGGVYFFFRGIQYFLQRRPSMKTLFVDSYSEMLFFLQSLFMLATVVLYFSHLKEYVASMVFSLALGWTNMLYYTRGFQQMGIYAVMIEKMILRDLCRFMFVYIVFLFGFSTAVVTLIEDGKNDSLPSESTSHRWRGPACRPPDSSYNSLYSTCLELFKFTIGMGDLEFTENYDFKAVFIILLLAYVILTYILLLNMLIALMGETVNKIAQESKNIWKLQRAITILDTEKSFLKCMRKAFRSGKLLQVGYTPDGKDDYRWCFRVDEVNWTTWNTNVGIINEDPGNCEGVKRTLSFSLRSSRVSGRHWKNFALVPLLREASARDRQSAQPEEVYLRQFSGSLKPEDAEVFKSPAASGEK

[3] = tested on: nociceptive response to formalin injected into the rat paw; assay: Nociceptive response to formalin injected into the rat paw; type: in vivo
anandamide levels = assay: Anandamide levels in the periaqueductal grey after intra-PAG injection; type: in vivo; details: 4 μg/rat intra-PAG, measured 20 min following injection
[4] = tested on: OFF cells of the rostral ventromedial medulla; assay: Inhibitory effect of formalin on OFF cells of the rostral ventromedial medulla; type: in vivo, rat; details: FIG. 2B
[5] = tested on: chronic constrictory injury (CCI) of the sciatic nerve; assay: CCI neuropathic pain, thermal nociceptive response (Plantar Test, paw withdrawal latency); type: in vivo, rat; details: CCI rats, i.p. for 7 days; AA-5-HT 5 mg/kg, URB-597 3 mg/kg; FIG. 4
Experimental: (§1) Neuropathic pain was induced by chronic constrictory injury (CCI) of the sciatic nerve. Rats were anaesthetized with sodium pentobarbital (60 mg/kg i.p.), the right sciatic nerve was exposed and four ligatures were loosely tied around the nerve just proximal to the trifurcation. Control rats underwent a sham surgery with exposure of the sciatic nerve without ligature.
(§2) Changes in thermal and mechanical nociceptive responses have been evaluated using a Plantar Test Apparatus and Dynamic Plantar Anaesthesiometer (Ugo Basile, Varese, Italy). Thermal paw withdrawal latency and mechanical paw withdrawal threshold (PWL and PWT) were measured (in sec and grams, respectively) for each group of rats every 30 min for 3 h.

[6] = tested on: chronic constrictory injury (CCI) of the sciatic nerve; assay: CCI neuropathic pain, mechanical allodynia (Dynamic Plantar Anaesthesiometer, paw withdrawal threshold); type: in vivo, rat; details: CCI rats, i.p. for 7 days; AA-5-HT 5 mg/kg, URB-597 3 mg/kg; FIG. 3
Experimental: as §1, §2

TRPV1 channels [7] = target: T1, TRPV1 channels; details: read-out: IC50 against capsaicin, previously reported; cited from earlier work

Row | SMILES | type of FAAH inhibition [1] | less potent than URB-597 at inhibiting FAAH ([1]; in vitro) | IC50 (TRPV1 channels [2]) | nociceptive response to formalin ([3]; 4 μg/rat injected into the periaqueductal grey (PAG), FIG. 2A) | nocifensive response to formalin ([3]; 1 mg/rat, s.c., injected into the paw) | anandamide levels in the PAG (anandamide levels) | inhibitory effect of formalin on the OFF cells of the rostral ventromedial medulla ([4]; supraspinal level) | thermal nociceptive responses [5] | mechanical allodynia [6] | effect on the anti-hyperalgesic effect of AA-5-HT ([3]; AA-5-HT 4 μg/rat intra-PAG, AM251 (nmol/rat), capsazepine 6 nmol/rat) | effect on the action of AA-5-HT injected into the paw ([3]; AA-5-HT 1 mg/rat s.c. into the paw) | effect on the action of AA-5-HT on OFF cells [4] | IC50 (TRPV1 channels [7])
1 | CCCCC/C=C\C/C=C\C/C=C\C/C=C\CCCC(=O)NCCc1c[nH]c2ccc(O)cc12 [AA-5-HT, N-arachidonoyl-serotonin] | mixed inhibitors | 100 fold | 0.13 µM | potently inhibited both phases | selectively blocked the 2nd, inflammatory phase | elevated | blocking the inhibitory effect of formalin | as efficacious as URB-597 | totally abolished | – | – | – | –
2 | NC(=O)c1cccc(-c2cccc(OC(=O)NC3CCCCC3)c2)c1 [URB-597, reference compound] | – | – | – | – | – | – | – | reducing thermal nociceptive responses | ineffective | – | – | – | –
3 | Oc1cc2c(cc1O)CN(C(=S)NCCc1ccc(Cl)cc1)CCC2 [capsazepine, reference compound] | – | – | – | – | – | – | – | – | – | occluded | occluded | occluded | 0.06 µM
